According to paper PMC4102531, “Pharmacologic Inhibition of Sphingomyelin Synthase (SMS) Activity Reduces Apolipoprotein-B Secretion from Hepatocytes and Attenuates Endotoxin-Mediated Macrophage Inflammation” (PLoS ONE, 2014):

Molecular target: T1, SMS2 (sphingomyelin synthase 2) (Mus musculus, UniProt Q9D4B1)
T1 construct: gene Sgms2; native enzyme in liver homogenate of SMS1 KO mice
T1 sequence (Q9D4B1 1-365): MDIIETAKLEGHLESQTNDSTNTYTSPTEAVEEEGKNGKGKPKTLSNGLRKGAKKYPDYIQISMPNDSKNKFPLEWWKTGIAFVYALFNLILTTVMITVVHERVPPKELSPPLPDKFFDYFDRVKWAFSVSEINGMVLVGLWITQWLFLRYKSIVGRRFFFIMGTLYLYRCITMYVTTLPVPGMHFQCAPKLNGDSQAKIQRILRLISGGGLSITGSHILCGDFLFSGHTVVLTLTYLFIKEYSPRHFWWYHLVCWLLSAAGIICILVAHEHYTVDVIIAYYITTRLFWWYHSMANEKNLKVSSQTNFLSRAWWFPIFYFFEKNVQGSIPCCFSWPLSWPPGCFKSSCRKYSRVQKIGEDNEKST
Assay: SMS activity assay in SMS1 KO mouse liver homogenate
Format: cell-based

N#CC(Nc1ccccc1)c1ccccc1OCc1ccccc1 (stereo not shown) [Dy105, 2-(2-(benzyloxy)phenyl)-2-(phenylamino) acetonitrile]
SMS activity assay in SMS1 KO mouse liver homogenate: we found the compound can inhibit SMS2 but not SMS1 activity (Fig. 3A and B) in the liver
